Results from the NIST ThermoML archive (doi:10.1021/je800110r).
Where “and” joins values, the source holds several entries; their conditions need not be identical. Equal values may be shown once.

Details: 283.14 K, Liquid, Vibrating tube method

CCCCCCCCCC [decane]
Details | mass density
322 kPa | 737.5 kg/m3
338 kPa | 737.7 kg/m3
385 kPa | 737.6 kg/m3
479 kPa | 737.8 kg/m3
514 kPa | 737.8 kg/m3
551 kPa | 737.8 kg/m3
574 kPa | 737.8 kg/m3
589 kPa | 737.8 kg/m3
615 kPa | 737.9 kg/m3
633 kPa | 737.9 kg/m3
651 kPa | 737.9 kg/m3
665 kPa | 737.9 kg/m3
683 kPa | 737.8 kg/m3
700 kPa | 737.8 kg/m3
721 kPa | 737.8 kg/m3
740 kPa | 737.9 kg/m3
763 kPa | 738 kg/m3
783 kPa | 737.9 kg/m3
808 kPa | 738 kg/m3
833 kPa | 738 kg/m3
857 kPa | 738 kg/m3
877 kPa | 738 kg/m3
899 kPa | 738 kg/m3
931 kPa | 738.1 kg/m3
966 kPa | 738.2 kg/m3
995 kPa | 738.1 kg/m3
1025 kPa | 738.1 kg/m3
1066 kPa | 738.2 kg/m3
1103 kPa | 738.2 kg/m3
1133 kPa | 738.1 kg/m3
1173 kPa | 738.3 kg/m3
1217 kPa | 738.3 kg/m3
1247 kPa | 738.2 kg/m3
1299 kPa | 738.3 kg/m3
1359 kPa | 738.3 kg/m3
1404 kPa | 738.5 kg/m3
1536 kPa | 738.5 kg/m3
2661 kPa | 739.4 kg/m3
2677 kPa | 739.3 kg/m3
2694 kPa | 739.3 kg/m3
2848 kPa | 739.5 kg/m3
2888 kPa | 739.4 kg/m3
2910 kPa | 739.5 kg/m3
2926 kPa | 739.5 kg/m3
2942 kPa | 739.5 kg/m3
2959 kPa | 739.6 kg/m3
2987 kPa | 739.6 kg/m3
3024 kPa | 739.7 kg/m3
3042 kPa | 739.6 kg/m3
3053 kPa | 739.6 kg/m3
3064 kPa | 739.7 kg/m3
3084 kPa | 739.6 kg/m3
3192 kPa | 739.6 kg/m3
3239 kPa | 739.7 kg/m3
3249 kPa | 739.8 kg/m3
3261 kPa | 739.8 kg/m3
3321 kPa | 739.8 kg/m3
3332 kPa | 739.8 kg/m3
3814 kPa | 740.2 kg/m3
3824 kPa | 740.1 kg/m3
3837 kPa | 740.2 kg/m3
3847 kPa | 740.3 kg/m3
3862 kPa | 740.2 kg/m3
3876 kPa | 740.1 kg/m3
3887 kPa | 740.3 kg/m3
4382 kPa | 740.6 kg/m3
4686 kPa | 740.8 kg/m3
4709 kPa | 740.9 kg/m3
4730 kPa | 740.8 kg/m3
4749 kPa | 740.9 kg/m3
4854 kPa | 741 kg/m3
4879 kPa | 741 kg/m3
4901 kPa | 741 kg/m3
4924 kPa | 740.9 kg/m3
4947 kPa | 741 kg/m3
4968 kPa | 741.1 kg/m3
4992 kPa | 741.1 kg/m3
5006 kPa | 741.1 kg/m3
5028 kPa | 741 kg/m3
5042 kPa | 741 kg/m3
5058 kPa | 741.1 kg/m3
5077 kPa | 741.1 kg/m3
5094 kPa | 741.2 kg/m3
5117 kPa | 741.1 kg/m3
5136 kPa | 741 kg/m3
5156 kPa | 741.1 kg/m3
5176 kPa | 741.3 kg/m3
5205 kPa | 741.3 kg/m3
5223 kPa | 741.2 kg/m3
5244 kPa | 741.2 kg/m3
5265 kPa | 741.2 kg/m3
5316 kPa | 741.3 kg/m3
5598 kPa | 741.5 kg/m3
5751 kPa | 741.6 kg/m3
5767 kPa | 741.6 kg/m3
5776 kPa | 741.6 kg/m3
5781 kPa | 741.6 kg/m3
5783 kPa | 741.6 kg/m3
5784 kPa | 741.5 kg/m3 and 741.7 kg/m3
5793 kPa | 741.7 kg/m3
5798 kPa | 741.6 kg/m3
5802 kPa | 741.6 kg/m3
5814 kPa | 741.7 kg/m3
5816 kPa | 741.6 kg/m3
5823 kPa | 741.7 kg/m3
5833 kPa | 741.6 kg/m3
5852 kPa | 741.7 kg/m3
5869 kPa | 741.7 kg/m3
5881 kPa | 741.7 kg/m3
5888 kPa | 741.6 kg/m3
5891 kPa | 741.7 kg/m3
5895 kPa | 741.8 kg/m3
5898 kPa | 741.7 kg/m3
5902 kPa | 741.8 kg/m3
5907 kPa | 741.7 kg/m3
5910 kPa | 741.7 kg/m3
5914 kPa | 741.7 kg/m3
5929 kPa | 741.7 kg/m3
6176 kPa | 741.9 kg/m3
6202 kPa | 741.9 kg/m3
6218 kPa | 741.8 kg/m3
6237 kPa | 741.9 kg/m3
6251 kPa | 741.8 kg/m3
6269 kPa | 741.9 kg/m3
6284 kPa | 742 kg/m3
6304 kPa | 741.9 kg/m3
6319 kPa | 742 kg/m3
6335 kPa | 742 kg/m3
6350 kPa | 741.9 kg/m3
6373 kPa | 742.1 kg/m3
6391 kPa | 742.1 kg/m3
6409 kPa | 742 kg/m3
6431 kPa | 742 kg/m3
6452 kPa | 742 kg/m3
6465 kPa | 742.1 kg/m3
6481 kPa | 742 kg/m3
6497 kPa | 742.2 kg/m3
6519 kPa | 742.2 kg/m3
6543 kPa | 742.1 kg/m3
6560 kPa | 742.2 kg/m3
6588 kPa | 742.2 kg/m3
6610 kPa | 742.2 kg/m3
7156 kPa | 742.7 kg/m3
7171 kPa | 742.6 kg/m3
7221 kPa | 742.7 kg/m3
7240 kPa | 742.6 kg/m3
7671 kPa | 742.8 kg/m3
7684 kPa | 742.9 kg/m3
7747 kPa | 743 kg/m3
7758 kPa | 743 kg/m3
7770 kPa | 743 kg/m3
8186 kPa | 743.2 kg/m3
8201 kPa | 743.4 kg/m3
8217 kPa | 743.3 kg/m3
8232 kPa | 743.3 kg/m3
8252 kPa | 743.3 kg/m3
8265 kPa | 743.3 kg/m3
8279 kPa | 743.3 kg/m3
8296 kPa | 743.4 kg/m3
8848 kPa | 743.8 kg/m3
8878 kPa | 743.7 kg/m3
8907 kPa | 743.7 kg/m3
8922 kPa | 743.8 kg/m3
8936 kPa | 743.9 kg/m3
8949 kPa | 743.7 kg/m3
8964 kPa | 743.9 kg/m3
8980 kPa | 743.8 kg/m3
8992 kPa | 743.9 kg/m3
9004 kPa | 743.8 kg/m3
9019 kPa | 743.8 kg/m3
9029 kPa | 743.9 kg/m3
9038 kPa | 743.8 kg/m3
9050 kPa | 743.9 kg/m3
9059 kPa | 743.9 kg/m3
9071 kPa | 743.8 kg/m3
9080 kPa | 743.9 kg/m3
9717 kPa | 744.3 kg/m3
10364 kPa | 744.7 kg/m3
10421 kPa | 744.9 kg/m3
10435 kPa | 744.9 kg/m3
10472 kPa | 744.9 kg/m3
10482 kPa | 744.8 kg/m3
10525 kPa | 744.9 kg/m3
10552 kPa | 744.9 kg/m3
10563 kPa | 744.8 kg/m3
10574 kPa | 745 kg/m3
10588 kPa | 744.9 kg/m3
10597 kPa | 744.9 kg/m3
10608 kPa | 745 kg/m3
10620 kPa | 745 kg/m3
10631 kPa | 745 kg/m3
10646 kPa | 745 kg/m3
10659 kPa | 745 kg/m3
10673 kPa | 745 kg/m3
10999 kPa | 745.3 kg/m3
11564 kPa | 745.6 kg/m3
11578 kPa | 745.6 kg/m3
11593 kPa | 745.6 kg/m3
11608 kPa | 745.6 kg/m3
11694 kPa | 745.7 kg/m3
11712 kPa | 745.6 kg/m3
11728 kPa | 745.8 kg/m3
11741 kPa | 745.7 kg/m3
11759 kPa | 745.7 kg/m3
13134 kPa | 746.6 kg/m3
13157 kPa | 746.7 kg/m3
13176 kPa | 746.7 kg/m3
13196 kPa | 746.7 kg/m3
13216 kPa | 746.6 kg/m3
13236 kPa | 746.7 kg/m3
13256 kPa | 746.6 kg/m3
13276 kPa | 746.7 kg/m3
13296 kPa | 746.7 kg/m3
13358 kPa | 746.8 kg/m3
13379 kPa | 746.8 kg/m3
13400 kPa | 746.9 kg/m3
13421 kPa | 746.8 kg/m3
13438 kPa | 746.8 kg/m3
13465 kPa | 746.8 kg/m3
13489 kPa | 746.9 kg/m3
13507 kPa | 746.8 kg/m3
13528 kPa | 746.8 kg/m3
13546 kPa | 746.8 kg/m3
13574 kPa | 746.9 kg/m3
13613 kPa | 747 kg/m3
14239 kPa | 747.3 kg/m3
14264 kPa | 747.4 kg/m3
14287 kPa | 747.4 kg/m3
14316 kPa | 747.4 kg/m3
14335 kPa | 747.4 kg/m3
14461 kPa | 747.5 kg/m3
15158 kPa | 748 kg/m3
15181 kPa | 747.9 kg/m3
15201 kPa | 748.1 kg/m3
15221 kPa | 748 kg/m3
15259 kPa | 748.1 kg/m3
15288 kPa | 748 kg/m3
15328 kPa | 748 kg/m3
16053 kPa | 748.5 kg/m3
17575 kPa | 749.4 kg/m3
17600 kPa | 749.6 kg/m3
17681 kPa | 749.6 kg/m3
18272 kPa | 750 kg/m3
18327 kPa | 750.1 kg/m3
18353 kPa | 749.9 kg/m3
18410 kPa | 750.1 kg/m3
18436 kPa | 750.1 kg/m3
18466 kPa | 750.1 kg/m3
18497 kPa | 750.2 kg/m3
18520 kPa | 750.2 kg/m3
18543 kPa | 750.1 kg/m3
18605 kPa | 750.2 kg/m3
18628 kPa | 750.2 kg/m3
19272 kPa | 750.6 kg/m3
19319 kPa | 750.6 kg/m3
19342 kPa | 750.7 kg/m3
19377 kPa | 750.7 kg/m3
19413 kPa | 750.7 kg/m3
20535 kPa | 751.4 kg/m3
20578 kPa | 751.3 kg/m3
20601 kPa | 751.5 kg/m3
21429 kPa | 752 kg/m3
21453 kPa | 752 kg/m3
21475 kPa | 751.9 kg/m3
21504 kPa | 752 kg/m3
21533 kPa | 752 kg/m3
21563 kPa | 752.1 kg/m3
21589 kPa | 752 kg/m3
21622 kPa | 752.2 kg/m3
21647 kPa | 752.1 kg/m3
21669 kPa | 752.1 kg/m3
21696 kPa | 752 kg/m3
21719 kPa | 752.2 kg/m3
